{"source": "patent US11484601B2", "about": "“Targeting M2-like tumor-associated macrophages by using melittin-based proapoptotic peptide” (TWI[…]., priority 2018, dated 2022)", "key": {"[1]": {"experiment": "MTS cell viability assay, M2-type macrophage", "type": "cell-based, mouse", "conditions": "mouse, M2 macrophage, 0.6 to 0.5 μM, reaction for 24 hours", "experimental": "(§1) More specifically, dKLA (SEQ ID NO: 2), MEL (SEQ ID NO: 1), MEL-dKLA (SEQ ID NO: 3; […]-d[KLAKLAKKLAKLAK]) peptide and 5-carboxyl tetramethylrhodamine (TMR)-conjugated dKLA, MEL and MEL-KLA peptides were purchased from GenScript (Piscataway, N.J., USA). TMR was conjugated with the amino group located at the N-terminal of the peptide. Regarding all of the peptides, 95% or greater purified peptides were used. Murine Lewis lung carcinoma (LLC) cells and macrophage RAW264.7 of mice were cultured in Dulbecco's modified Eagle's medium (DMEM; Welgene, Korea) to which 10% heat-inactivated fetal bovine serum (Welgene), 100 U/mL penicillin and 100 μg/mL streptomycin (Invitrogen, CA, USA) were added. Macrophage (RAW264.7) differentiated into M2-type was treated with IL-4 and IL-13 in the medium for 24 hours. After the treatment, the cells were cultured in a state in which serum was insufficient for 48 hours. M1-type macrophage was treated with 1 ng/mL of LPS for 24 hours to induce differentiation.\n(§2) The cell viability test was measured via the MTS assay. RAW264.7 macrophage was differentiated into M1-type or M2-type macrophage which was inoculated onto a 96-well plate at 3×10^4 cells/well. The next day, the macrophage was treated with each of PBS, dKLA, MEL and MEL-dKLA. After 24 hours, the culture solution was replaced and the cell was treated with 20 μL MTS reaction solution (Promega, WI, USA), followed by reaction at 37° C. Then, […] was measured at 490 nm to measure cell viability.\n(§3) The MEL-DM1 anticancer drug conjugation method and cell test method are as described above."}, "[2]": {"tested_on": "M2 macrophage (RAW264.7 differentiated into M2-type with IL-4 and IL-13)", "experiment": "MTS cell viability assay, M2-type macrophage", "type": "cell-based, mouse", "conditions": "24 hours, read-out: half-maximal inhibitory concentration (IC50) against M2 macrophage", "experimental": "as §1, §2, §3"}, "[3]": {"experiment": "MTS cell viability assay, M1-type macrophage", "type": "cell-based", "conditions": "mouse, RAW264.7 macrophages differentiated into M1-type with LPS, 0.6 to 0.8 μM", "experimental": "as §1\nas §2, with “After 24 hours, the culture solution was replaced and the cell was treated with 20 μL MTS reaction solution (Promega, WI, USA), followed by reaction at 37° C.” left out"}, "M1 macrophage": {"tested_on": "M1 macrophage", "experiment": "Annexin V-FITC / MitoTracker flow cytometry, M1 macrophage", "type": "cell-based, mouse", "conditions": "0.8 μM peptide", "experimental": "More specifically, the cells were stained with Annexin V-fluorescein isothiocyanate (FITC; BD Biosciences, CA, USA) and MitoTracker RedBOX (Invitrogen). The cells were inoculated at 5×10^5 cells/well, onto a 24-well plate. The next day, 0.8 μM peptide was applied thereto. In 1, 3 and 6 hours after the application, the cells were reacted with 250 nM MitoTracker for 1 hour in a serum-free culture solution. Thereafter, the cells were collected and reacted with Annexin V again. The reacted cells were measured with BD FACSCalibur, and were analyzed via FlowJo software (Treestar, Inc., CA, USA). MitoTracker could pass through protoplasmic membrane depending on the membrane charge and then accumulated within the mitochondria. In other words, staining may be identified in the mitochondria membrane of living cells, but staining may be difficult in cells where apoptosis occurs due to membrane disturbance."}, "[4]": {"tested_on": "M1-type tumor-associated macrophage (CD45+F4/80+CD86+)", "experiment": "Flow cytometry of tumor tissue, M1-type TAM", "type": "in vivo, mouse", "conditions": "MEL vs PBS and dKLA groups; MEL-dKLA vs MEL group", "experimental": "More specifically, the tumor cells were thinly crushed and separated from each other in DMEM to which DNasel (1 U/mL) and collagenase D (1 mg/mL) were added. The tissue was gently agitated for 1 hour at 37° C., and separated using a […] nylon mesh filter. Red blood cells were dissolved in Phrmlyse buffer (BE bioscience). Individual cells passed through a 40-μm nylon mesh filter and then were stained with following antibodies: CD4+ T cell (CD45+CD4+CD8−), CD8+ T cell (CD45+CD4−CD8+), Foxp3+ regulatory T cell (CD4+CD25+Foxp3+), dendritic cell (CD45+CD11b+CD11c+), and M1 (CD45+F4/80+CD86+) or M2 macrophage (CD45+F4/80+CD206+): anti-CD45-FITC, anti-CD4-phycoerythrin (PE), anti-CD8-allophycocyanin (APC), anti-CD4-FITC, anti-CD25-PE, anti-Foxp3-Alexa Fluor647, anti-CD11b-APC, anti-CD11c-APCcy7, anti-Grl-PEcy7, anti-CD86-PEcy7, and anti-CD206-APC antibodies. Annexin-V was previously treated to measure the cell percentage of macrophages."}, "[5]": {"tested_on": "CD31+ endothelial cells of LLC tumors", "experiment": "CD31 immunofluorescence staining of tumor endothelial cells", "type": "in vivo, mouse", "conditions": "LLC tumor sections", "description": "CD31 (PECAM-1) is […] the vascular endothelium, and is well-known as a marker that may indicate angiogenesis. The angiogenesis in tumors is essential means to supply oxygen and nutrients to areas at a low oxygen level in the tumor and thus is closely related to cancer growth and metastasis. M2-type macrophages are major precursors of angiogenic factors, and contain cyclooxygenase-2, matrix metalloproteinase-9 and VEGF. The density of macrophage is related to angiogenesis. Therefore, immunostaining was performed and a confocal device was used to identify whether a decrease in the M2-type tumor-associated macrophage (TAM) in a tumor causes a decrease in angiogenesis.\nMore specifically, the tissue was […] with paraformaldehyde for 24 hours. Then, the tissue was cut into sections having 4 μm thickness using a rotary microtome, which in turn was restored via autoclaving under pressure for 1 minute with tri-sodium citrate buffer. […] After the staining, the sections were mounted on and analyzed using a laser scanning confocal microscope (Carl Zeiss). All images are taken using LSMS PASCAL, and fluorescence values were analyzed using ImageJ software."}}}
{"smiles": "CC[C@H](C)[C@H](NC(=O)CN)C(=O)NCC(=O)N[C@@H](C)C(=O)N[C@H](C(=O)N[C@@H](CC(C)C)C(=O)N[C@@H](CCCCN)C(=O)N[C@H](C(=O)N[C@@H](CC(C)C)C(=O)N[C@H](C(=O)N[C@H](C(=O)NCC(=O)N[C@@H](CC(C)C)C(=O)N1CCC[C@H]1C(=O)N[C@@H](C)C(=O)N[C@@H](CC(C)C)C(=O)N[C@H](C(=O)N[C@@H](CO)C(=O)N[C@@H](Cc1c[nH]c2ccccc12)C(=O)N[C@H](C(=O)N[C@@H](CCCCN)C(=O)N[C@@H](CCCNC(=N)N)C(=O)N[C@@H](CCCCN)C(=O)N[C@@H](CCCNC(=N)N)C(=O)N[C@@H](CCC(N)=O)C(=O)N[C@@H](CCC(N)=O)C(N)=O)[C@@H](C)CC)[C@@H](C)CC)[C@@H](C)O)[C@@H](C)O)C(C)C)C(C)C", "note": "[MEL]", "values": [{"measurement": "viability at 24 h", "setting": "[1]", "result": "71 to 79", "unit": "%"}, {"measurement": "IC50", "setting": "[2]", "result": "0.6 to 0.8", "unit": "µM"}, {"measurement": "viability at 24 h", "setting": "[3]", "result": 74, "unit": "%"}, {"measurement": "Annexin V / MitoTracker staining effect on M1 macrophage", "setting": "M1 macrophage; 1 to 3 hours", "result": "the effect did not appear"}, {"measurement": "Annexin V / MitoTracker staining change in M1 macrophage", "setting": "M1 macrophage; 6 hours", "result": "no significant change"}, {"measurement": "F480+ CD86+ M1-type tumor-associated macrophage in tumor", "setting": "[4]", "result": "slightly increased"}, {"measurement": "CD31+ endothelial cells (blood vessel density)", "setting": "[5]", "result": "significant decrease"}]}
